Key:
Assay type in all cases: functional
Escherichia coli [1] = assay: Synergistic antibacterial activity against wild type Escherichia coli BW25113 assessed as fold decrease in erythromycin MIC at 8 microg/ml incubated for 18 hrs by checkboard based microplate reader analysis; conditions: dose 8 µg/ml
Escherichia coli [2] = assay: Synergistic antibacterial activity against wild type Escherichia coli BW25113 assessed as erythromycin MIC at 1 microg/ml incubated for 18 hrs in presence of colistin by broth dilution assay; conditions: dose 1 µg/ml
Escherichia coli [3] = assay: Synergistic antibacterial activity against wild type Escherichia coli BW25113 assessed as minocycline MIC at 1 microg/ml incubated for 18 hrs in presence of colistin by broth dilution assay; conditions: dose 1 µg/ml
Escherichia coli [4] = assay: Synergistic antibacterial activity against wild type Escherichia coli BW25113 assessed as minocycline MIC at 2 microg/ml incubated for 18 hrs in presence of colistin by broth dilution assay; conditions: dose 2 µg/ml

| Compound | fold change (FC) (Escherichia coli [1]) | MIC (Escherichia coli [2]) [µg/mL] | MIC (Escherichia coli [3]) [µg/mL] | MIC (Escherichia coli [4]) [µg/mL] |
| --- | --- | --- | --- | --- |
| CC1(C)CCc2c(C(=O)N3CCOCC3)cc3c(OCCSc4ccc([N+](=O)[O-])cc4)cccc3c2O1 | 4 | – | – | – |
| CC1(C)CCc2c(C(=O)N3CCOCC3)cc3c(OCCN4CCN(c5ccccc5)CC4)cccc3c2O1 | – | 16 | 0.5 | 0.5 |

Reference: ChEMBL document CHEMBL5346892, “Design and synthesis of benzochromene derivatives as AcrB inhibitors for the reversal of bacterial multidrug resistance” (Eur J Med Chem, 2023)
